Assay results published in US20250250227A1, “AMINO LIPID COMPOUND, PREPARATION METHOD THEREFOR, COMPOSITION THEREOF AND USE THEREOF” (SHENZHEN SHENXIN BIOTECHNOLOGY CO., LTD., priority 2022, published 2025).

Assays:
[1] = Preparation and characterisation of mRNA-encapsulating lipid nanoparticle (encapsulation efficiency, particle size); assay type: physicochemical; conditions: LNP encapsulating Fluc mRNA; Lipid:DSPC:CHO-HP:M-DMG-2000 48:10:40.5:1.5
Outline: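 Fluc mRNA in sodium acetate buffer mixed with ethanolic amino lipid:DSPC:CHO-HP:M-DMG-2000 (48:10:40.5:1.5 molar) by microfluidics, mRNA:lipid mass ratio 1:10, then dialysed 2 h against Tris-8% sucrose and 0.22 μm filtered. Final mRNA 0.2 g/L; particle size and encapsulation efficiency measured.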

Female BALB/c mice [2] = experiment: Performance evaluation of in vivo delivery of Fluc mRNA lipid nanoparticle (IVIS, body and organs); conditions: Fluc mRNA LNP
Outline: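 Female BALB/c mice, 6-8 weeks, received 75 μL Fluc mRNA-LNP by tail-vein injection, 3 mice per formulation. At 6 h, 200 μL D-luciferin was injected, mice were anesthetized with isoflurane, and IVIS bioluminescence was imaged in body and organs.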

Female BALB/c mice [3] = experiment: Performance evaluation of delivery to lymph nodes of Fluc mRNA lipid nanoparticle (IVIS); assay type: in vivo; conditions: Fluc mRNA LNP
Description: (§1) Animal preparation: Female BALB/c mice of 6-8 weeks old were selected and raised in an SPF grade breeding room. Animal testing was conducted in strict accordance with the guidelines of national health institutions and animal ethics requirements.
In vivo Delivery: prior to injection of the test LNP formulations, the LNP formulations were gently and repeatedly inverted to thoroughly mix the formulation samples. A corresponding amount of the formulation samples were aspirated with a 1 ml insulin syringe, and the LNP formulations were injected by tail vein injection (IV), with 3 mice per formulation. Each mouse was injected with 75 μL the luciferase mRNA (Fluc mRNA)-encapsulating lipid nanoparticle formulation prepared in Experimental Example 1.
6 hours after injection of LNP formulations, mice were injected with 200 μL D-Luciferin luciferase developing substrate (Catalog No. 122799; Manufacturer: Perkin Elmer). After the substrate was injected, the mice were anesthetized with isoflurane inhalation, and the injection time of luciferase developing substrate was recorded.
The intensity of fluorescence expression induced by the lipid nanoparticle encapsulating luciferase mRNA (Fluc mRNA) with a representative amino lipid compound is shown in Table 6, with SM-102 as a control.

Female BALB/c mice [4] = experiment: IFN-γ Elispot cellular immunity test, spleen lymphocytes of mice immunized with IN002.5.1 mRNA LNP; assay type: in vivo; conditions: 50 μL IM, spleen on 7th day after immunization, FIG. 2-4
Description: An IN002.5.1 mRNA-encapsulating lipid nanoparticle formulation was prepared according to the method as described in Experimental Example 1, with replacing the luciferase mRNA (Fluc mRNA) with IN002.5.1 mRNA, with a concentration of IN002.5.1 mRNA of 0.2 g/L, a mass ratio of IN002.5.1 mRNA to Lipid of 1:10, a particle size of 80-130 nm, and an encapsulation efficiency of 90% or higher.
The sequence of IN002.5.1 mRNA is one obtained by replacing all uracil (u) in SEQ ID NO. 1 with N1-methylpseudouridine. Of note is that the t (thymine) in the RNA sequence, SEQ ID NO. 1, in the Sequence Listing is actually u (uracil), according to the WIPO Standard ST. 26 for nucleotide or amino acid sequence listing.
as §1
Immunization of mice: Prior to injection of the test LNP formulations, the LNP formulations were gently and repeatedly inverted to thoroughly mix the formulation samples. A corresponding amount of the formulation samples were aspirated with a 1 ml insulin syringe, and the LNP formulations were injected by intramuscular injection (IM) […], with 8 mice per formulation. Each mouse was injected with 50 μL of the IN002.5.1 mRNA encapsulating lipid nanoparticle formulation.
Spleen acquisition: On the 7th day after immunization, 3 to 4 mice from each LNP immunization group were selected and euthanized, and their spleens were acquired in a super clean bench.
Isolation of lymphocytes: The spleens of mice were taken out in a super clean bench. 7 mL of mouse lymphocyte separation solution was added to a 6-well cell culture plate. Mouse spleen cells were ground with a syringe piston, and the suspension of the spleen cells was filtered through a cell screen and immediately transferred to a 15 mL centrifuge tube. […] RPMI 1640 medium was slowly added with keeping the liquid interface distinct. After centrifugation at 800 g with a horizontal rotor at room temperature for 30 minutes, a clear stratification can be visible. The lymphocyte layer was aspirated, then added with 10 mL RPMI 1640 medium, and inverted for washing. The cells were collected by centrifugation at 250 g for 10 min at room temperature, and the red blood cells were lysed. After completing lysis of red blood cells, the supernatant was poured, and the cells were resuspended in culture medium and counted.
Addition of stimulant and culture of lymphocyte: RPMI-1640 medium containing 10% fetal bovine serum was used to activate the pre-coated plate. After standing at room temperature for at least 30 min, the medium was removed, and a cell suspension at adjusted concentration was added ([…]). The medium used to resuspend the cells was used as a background negative control. 10 μL positive stimulant working solution (PMA+Ionomycin (dissolved in DPBS) was added to a positive control well; […] medium used to resuspend the cells was added to a negative control well; 10 µL/well of a peptide library diluted with RPMI 1640 was added to experimental wells. After all samples and the stimulant were added, the plate was covered, incubated in an incubator with 5% CO2 at 37° C. for 16-24 h.
Elispot detection after culture: The cells and the culture medium in the wells were dumped, and the wells were lysed with 200 μL/well of ice-cold deionized water at 4° C. for 10 min. The liquid in the wells were shaken out, and the wells were washed five times with PBS buffer. The wells were incubated with 100 μL/well of 1 μg/ml detection antibody for 2 h at room temperature; and after washing the plate 5 times with PBS, the wells were incubated with 100 μL/well of 1000-fold diluted enzyme labeled avidin (Streptavidin-HRP) for 1 h at room temperature. […]

Compound: CCCCCCC(CCCCCC)OC(=O)CCCCCCCCC(CCCCCCCCC(=O)OC(CCCCCC)CCCCCC)OC(=O)N(CCCN(C)C)CC(=O)OCC [Compound 268]
- Encapsulation efficiency [1]: 92.22%
- Liver (fluorescence expression intensity) (Female BALB/c mice [2]; 75 μL IV, 6 hours after injection, IVIS, liver): 2.11E+07
- Spleen (fluorescence expression intensity) (Female BALB/c mice [2]; 75 μL IV, 6 hours after injection, IVIS, spleen): 8.01E+06
- Total flux (fluorescence expression intensity) (Female BALB/c mice [2]; 75 μL tail vein injection (IV), 6 hours after injection, IVIS): 1.23E+08
- (Spleen/Total Flux) * 100% (Female BALB/c mice [2]; IV, 6 hours after injection): 6.51%
- Multiple of spleen delivery/total delivery to amino lipid compound 118 (Female BALB/c mice [2]; IV, relative to amino lipid compound 118): 19.15
- Expression intensity (lymph nodes) (Female BALB/c mice [3]; 75 μL IV, 6 hours after injection, IVIS, lymph nodes): 1.78E+06
- Delivery effect on lymph nodes compared to SM102 (Female BALB/c mice [3]; IV, statement on Table 6): better delivery effect on lymph nodes
- Cellular immunity effect (IFN-γ Elispot) compared to ALC0315 (Female BALB/c mice [4]): better cellular immunity effect
